In US8927545B2, “Inhibiting Eph B-3 kinase” (Duke University, priority 2009, dated 2015):
Entries after “also recorded” stand apart in the source; their conditions may differ.

Assays:
[1] = target: T1, recombinant human EphB3 kinase (Homo sapiens, UniProt P54753); assay: IC50 for inhibiting EphB3 phosphorylation of the BTK peptide (33P radiometric assay, assay of Examples 1-6); type: biochemical; settings: for EphB3 tyrosine kinase inhibitor activity (in words): inhibition of EphB3 phosphorylation of the BTK peptide; for IC50: inhibiting EphB3 phosphorylation of the BTK peptide (SEQ ID NO: 4)
T1 sequence (P54753 633-896 limits assumed): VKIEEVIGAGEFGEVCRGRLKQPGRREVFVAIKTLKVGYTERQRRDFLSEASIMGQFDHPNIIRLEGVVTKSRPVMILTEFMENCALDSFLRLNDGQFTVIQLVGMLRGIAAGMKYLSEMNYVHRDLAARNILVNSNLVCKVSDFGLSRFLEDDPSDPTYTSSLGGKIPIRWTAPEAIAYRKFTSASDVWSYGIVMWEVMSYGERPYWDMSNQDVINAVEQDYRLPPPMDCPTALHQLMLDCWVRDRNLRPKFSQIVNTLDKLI

[2] = system: Animal Model for Stroke (ischemia); assay: Infarct volume in animal model for stroke (2 h artery occlusion, compound ICV, TTC staining); type: in vivo, Sprague-Dawley rats; settings: different doses administered ICV; FIG. 6(E), FIG. 7(A)
[3] = system: panel of tumor cell lines; assay: Dose-response against a panel of tumor cell lines (SRB, % growth); type: cell-based, human; settings: leukemia, non-small cell lung, colon, CNS, melanoma, ovarian, renal, prostate, breast cancer lines; FIG. 8(A)-(I)
Method: The y-axis depicts the % growth and the x-axis depicts the compound concentration. The legends below each graph refer to the different tumor cell lines used. […]
The human tumor cell lines of the cancer screening panel were grown in RPMI 1640 medium containing 5% fetal bovine serum and 2 mM L-glutamine. For a typical screening experiment, cells were inoculated into 96 well microtiter plates in 100 μL at plating densities ranging from 5,000 to 40,000 cells/well depending on the doubling time of individual cell lines. After cell inoculation, the microtiter plates were incubated at 37° C., 5% CO2, 95% air and 100% relative humidity for 24 hours prior to addition of experimental drugs. […]
Following drug addition, the plates were incubated for an additional 48 h at 37° C., 5% CO2, 95% air, and 100% relative humidity. […] Bound stain was subsequently solubilized with 10 mM trizma base, and the absorbance is read on an automated plate reader at a wavelength of 515 nm. […] Using the seven absorbance measurements [time zero, (Tz), control growth, (C), and test growth in the presence of drug at the five concentration levels (Ti)], the percentage growth was calculated at each of the drug concentrations levels. Percentage growth inhibition was calculated as: [(Ti−Tz)/(C−Tz)]×100 for concentrations for which Ti>/=Tz [(Ti−Tz)/Tz]×100 for concentrations for which Ti<Tz. […]

[4] = system: Animal Model for Stroke (ischemia); assay: Neurological score / neurological deficit after ischemic injury; settings: rated between 0 (unaffected) and 4 (worst); different doses; FIG. 7(B)
recombinant EphB3 = target: T2, recombinant EphB3 (Homo sapiens, UniProt P54753); settings: published data, scintillation proximity assay, different substrate; cited from earlier work
T2 sequence (P54753 34-998): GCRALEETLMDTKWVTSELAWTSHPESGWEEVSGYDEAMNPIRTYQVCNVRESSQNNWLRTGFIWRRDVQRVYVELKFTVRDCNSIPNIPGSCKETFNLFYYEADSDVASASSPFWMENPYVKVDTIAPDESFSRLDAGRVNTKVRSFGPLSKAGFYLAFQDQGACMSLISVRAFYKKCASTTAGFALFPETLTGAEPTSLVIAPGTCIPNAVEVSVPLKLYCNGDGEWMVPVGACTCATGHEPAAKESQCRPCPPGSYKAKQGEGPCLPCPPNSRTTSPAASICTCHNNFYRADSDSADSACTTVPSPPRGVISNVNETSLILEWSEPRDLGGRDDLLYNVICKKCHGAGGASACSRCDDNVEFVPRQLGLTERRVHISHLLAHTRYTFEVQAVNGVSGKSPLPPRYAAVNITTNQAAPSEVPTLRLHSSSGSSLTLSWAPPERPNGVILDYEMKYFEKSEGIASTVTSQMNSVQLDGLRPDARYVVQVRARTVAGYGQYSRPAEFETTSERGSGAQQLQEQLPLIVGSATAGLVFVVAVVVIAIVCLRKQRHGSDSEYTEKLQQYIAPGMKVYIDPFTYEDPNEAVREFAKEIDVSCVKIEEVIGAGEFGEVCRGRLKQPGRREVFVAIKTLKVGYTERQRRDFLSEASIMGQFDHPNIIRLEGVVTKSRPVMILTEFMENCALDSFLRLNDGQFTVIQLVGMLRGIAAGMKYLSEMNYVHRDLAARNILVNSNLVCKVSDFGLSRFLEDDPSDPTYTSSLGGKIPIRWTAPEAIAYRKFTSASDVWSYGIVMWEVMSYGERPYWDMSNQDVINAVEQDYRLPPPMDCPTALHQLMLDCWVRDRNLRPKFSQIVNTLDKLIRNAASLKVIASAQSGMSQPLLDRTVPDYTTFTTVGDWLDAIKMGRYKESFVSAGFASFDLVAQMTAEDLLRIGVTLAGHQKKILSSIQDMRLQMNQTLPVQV

[5] = target: T3, recombinant human EphB3 kinase (Homo sapiens, UniProt P54753); assay: HTRF assay of BTK substrate phosphorylation by EphB3 kinase (known kinase inhibitors)
T3 sequence (P54753 585-998): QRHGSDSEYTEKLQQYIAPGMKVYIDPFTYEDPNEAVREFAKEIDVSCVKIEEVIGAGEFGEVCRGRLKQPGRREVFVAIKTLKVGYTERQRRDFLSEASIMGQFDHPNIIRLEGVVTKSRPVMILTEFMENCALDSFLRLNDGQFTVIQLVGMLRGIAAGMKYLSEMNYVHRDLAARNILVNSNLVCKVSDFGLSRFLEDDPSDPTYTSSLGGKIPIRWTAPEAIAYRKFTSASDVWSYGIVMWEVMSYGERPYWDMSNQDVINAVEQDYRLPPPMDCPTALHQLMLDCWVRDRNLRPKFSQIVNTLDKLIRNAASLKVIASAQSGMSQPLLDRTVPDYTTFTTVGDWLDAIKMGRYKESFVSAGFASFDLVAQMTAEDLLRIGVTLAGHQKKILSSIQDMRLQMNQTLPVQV

[6] = Table 1 pyrazolo[1,5-a]pyridine compounds

For `O=C(Nc1ccccc1Cl)c1cnn2ccccc12` [Compound 1], the “EphB3 tyrosine kinase inhibitor activity (in words)” value [1] was “showed EphB3 tyrosine kinase inhibitor activity”.
With `CN(C(=O)c1cnn2ccccc12)c1ccccc1Cl` [Compound 187597] the IC50 [1, 6] was greater than 20 µM and the “EphB3 tyrosine kinase inhibitor activity (in words)” value [1] was “inactive”.
For `O=C(Nc1ccccc1)c1cnn2ccccc12` [Compound 187598], the IC50 [1, 6] was greater than 20 µM and the “EphB3 tyrosine kinase inhibitor activity (in words)” value [1] was “little or no inhibition”.
In the case of `O=C(Nc1cccc(Cl)c1)c1cnn2ccccc12` [Compound 187600], the IC50 [1, 6] is reported as greater than 20 µM and the “EphB3 tyrosine kinase inhibitor activity (in words)” value [1] is reported as “little or no inhibition”.
For `O=C(Nc1ccc(Cl)cc1)c1cnn2ccccc12` [Compound 187601], the IC50 [1, 6] was greater than 20 µM and the “EphB3 tyrosine kinase inhibitor activity (in words)” value [1] was “little or no inhibition”.
With `O=C(NCc1ccccc1Cl)c1cnn2ccccc12` [Compound 187604] the IC50 [1, 6] was greater than 20 µM and the “EphB3 tyrosine kinase inhibitor activity (in words)” value [1] was “little or no inhibition; also recorded: inactive”.
With `COc1ccccc1NC(=O)c1cnn2ccccc12` [Compound 187605] the IC50 [1, 6] was greater than 20 µM and the “EphB3 tyrosine kinase inhibitor activity (in words)” value [1] was “little or no inhibition”.
In the case of `Cn1cc(C(=O)Nc2ccccc2Cl)c2ccccc21` [Compound 187609], the IC50 ([1]; Table 2 candidate compounds) is reported as greater than 20 µM.
Work on `O=C(Nc1ccccc1Cl)c1ccnc2ccccc12` [Compound 187611] yielded an IC50 ([1]; Table 2 candidate compounds) greater than 20 µM.
`O=C(Nc1ccccc1Cl)c1noc2ccccc12` [Compound 193671] showed an IC50 ([1]; Table 2 candidate compounds) greater than 20 µM.
In the case of `Cc1cccc2c(C(=O)Nc3ccccc3Cl)cnn12` [Compound 193694], the IC50 [1, 6] is reported as greater than 20 µM.
For `O=C(Nc1ccccc1Cl)c1cnn2cccnc12` [Compound 193695], the IC50 ([1]; Table 2 candidate compounds) was greater than 20 µM.
`O=C(Nc1ccccc1Cl)c1cnn2ncccc12` [Compound 193697] gave an IC50 ([1]; Table 2 candidate compounds) greater than 20 µM.
`O=C(Nc1ccccc1Cl)c1cnn2ccc(N3CCCC3)cc12` [Compound 194727, N-(2-chlorophenyl)-5-(pyrrolidin-1-yl)pyrazolo[1,5-a]pyridine-3-carboxamide] gave an IC50 [1, 6] of less than 0.3 µM.
In the case of `O=C(Nc1ccccc1Cl)c1cnc2ccc(Br)cn12` [Compound 209925, 6-bromo-N-(2-chlorophenyl)imidazo[1,2-a]pyridine-3-carboxamide], the IC50 ([1]; Table 3 imidazo[1,2-a]pyridine compounds) is reported as less than 0.2 µM.
In the case of `O=C(Nc1ccccc1Cl)c1cnc2ccc(C3CCNCC3)cn12` [Compound 211904, N-(2-chlorophenyl)-6-(piperidin-4-yl)imidazo[1,2-a]pyridine-3-carboxamide], the “Infarct volume at different compound doses” value [2] is reported as “dose-dependent decrease in infarct volume”, the “% growth of tumor cell lines” value [3] is reported as “inhibited” and the Neurological deficit [4] is reported as “dose-dependent neuroprotection in behavior”.
For `CC(C)(C)n1nc(-c2ccc(Cl)cc2)c2c(N)ncnc21` [PP2], the IC50 (recombinant EphB3) is listed as 0.8 µM, the IC50 ([5]; 12.5 nM EphB3, 30 min preincubation at RT, […] ATP, 600 nM BTK for 1 hr) is listed as 1.7 µM and the inhibition ([5]; at 10 μM, HTS positive control) is listed as 80%.
Work on `CN[C@@H]1C[C@H]2O[C@@](C)([C@@H]1OC)n1c3ccccc3c3c4c(c5c6ccccc6n2c5c31)C(=O)NC4` [Staurosporine, staurosporine] yielded an inhibition at 100 µM ([5]; read-out: inhibition of phosphorylation) of 50%.
